Laboratory results taken from publication PMC4867239 (Journal of biotechnology, 2016).
Ends that are not written are not given here.

How the values were obtained:
S. aureus = assay: microbe, parasite or virus in culture; conditions: Staphylococcus aureus, read-out: active at (MIC assay)
[1] = Plasma PK in mice, 14 days of daily IV dosing; assay type: in vivo, Mouse (CD-1); conditions: for AUC(0-t) / Cmax / MRT / Tmax: CD-1, mouse, plasma, iv
[2] = Quantitative whole body autoradiography with [14C]SGX94; assay type: in vivo, male CD-1 mice
[3] = Phase 1 SAD/MAD plasma PK in healthy volunteers; assay type: in vivo, Human; conditions: humans
[4] = Plasma PK in cynomolgus monkeys, 14 days of daily IV dosing; assay type: in vivo, Cynomolgus macaques; conditions: for AUC(0-t) / Cmax / MRT: cynomolgus monkey, plasma, iv

CC[C@H]1OC(=O)[C@H](C)[C@@H](O[C@H]2C[C@@](C)(OC)[C@@H](O)[C@H](C)O2)[C@H](C)[C@@H](O[C@@H]2O[C@H](C)C[C@H](N(C)C)[C@H]2O)[C@](C)(O)C[C@@H](C)C(=O)[C@H](C)[C@@H](O)[C@]1(C)O [erythromycin]
MIC (S. aureus): < 3.12 µg/mL

RIVPA-NH2 [SGX94, dusquetide]
AUC(0-t) ([1]; female, 20 mg/kg): 1700 ng·h/mL
Cmax ([1]; female, 20 mg/kg): 8080 ng/mL
MRT ([1]; female, 20 mg/kg): 2 min
AUC(0-t) ([1]; female, 60 mg/kg): 6520 ng·h/mL
Cmax ([1]; female, 60 mg/kg): 27100 ng/mL
MRT ([1]; female, 60 mg/kg): 6.5 min
AUC(0-t) ([1]; female, 90 mg/kg): 10400 ng·h/mL
Cmax ([1]; female, 90 mg/kg): 45800 ng/mL
MRT ([1]; female, 90 mg/kg): 1.8 min
AUC(0-t) ([1]; male, 20 mg/kg): 4500 ng·h/mL
Cmax ([1]; male, 20 mg/kg): 23000 ng/mL
MRT ([1]; male, 20 mg/kg): 2.3 min
Tmax ([1]; male, 20 mg/kg): 3 min
AUC(0-t) ([1]; male, 60 mg/kg): 9290 ng·h/mL
Cmax ([1]; male, 60 mg/kg): 41200 ng/mL
MRT ([1]; male, 60 mg/kg): 1.8 min
Tmax ([1]; male, 60 mg/kg): 3 min
AUC(0-t) ([1]; male, 90 mg/kg): 17400 ng·h/mL
Cmax ([1]; male, 90 mg/kg): 72200 ng/mL
MRT ([1]; male, 90 mg/kg): 1.6 min
Tmax ([1]; male, 90 mg/kg): 3 min
PK half-life ([1]; mouse): very short (minutes)
major analyte in blood ([2]; 20 mg/kg [14C]SGX94 IV, by 5 min post-dose): a metabolite of SGX94
penetration into CNS, bone, white adipose and eye lens ([2]; QWBA, 20 mg/kg [14C]SGX94 IV bolus, male CD-1 mice): low penetration
PK half-life [3]: very short (minutes)
AUC(0-t) ([4]; female, 20 mg/kg): 2410 ± 1230 ng·h/mL
Cmax ([4]; female, 20 mg/kg): 12400 ± 6410 ng/mL
MRT ([4]; female, 20 mg/kg): 6.6 min
AUC(0-t) ([4]; female, 80 mg/kg): 3360 ± 4710 ng·h/mL
Cmax ([4]; female, 80 mg/kg): 16900 ± 24800 ng/mL
MRT ([4]; female, 80 mg/kg): 55 min
AUC(0-t) ([4]; female, 160 mg/kg): 36300 ± 26400 ng·h/mL
Cmax ([4]; female, 160 mg/kg): 179000 ± 132000 ng/mL
MRT ([4]; female, 160 mg/kg): 6.6 min
AUC(0-t) ([4]; male, 20 mg/kg): 1330 ± 438 ng·h/mL
Cmax ([4]; male, 20 mg/kg): 6650 ± 2520 ng/mL
MRT ([4]; male, 20 mg/kg): 7.8 min
AUC(0-t) ([4]; male, 80 mg/kg): 19400 ± 6910 ng·h/mL
Cmax ([4]; male, 80 mg/kg): 85900 ± 25800 ng/mL
MRT ([4]; male, 80 mg/kg): 7.8 min
AUC(0-t) ([4]; male, 160 mg/kg): 46000 ± 9570 ng·h/mL
Cmax ([4]; male, 160 mg/kg): 206000 ± 33400 ng/mL
MRT ([4]; male, 160 mg/kg): 7.2 min
PK half-life ([4]; non-human primate): very short (minutes)
